Data on 2 compounds can be found in patent publication US20110275577A1, “METHODS OF TREATING DERMATOLOGIC, GYNECOLOGIC, AND GENITAL DISORDERS WITH CAFFEIC ACID ANALOGS” (Moleculin, LLC, priority 2010, published 2011).

This test deals with psoriasis patients. As to the kind of experiment: Human Psoriasis Study of WP1220 and CABE (pilot study). To be noted: topical treatment; psoriasis patients not responsive to current standard therapies. The format is in vivo. As for the experimental part: Human Psoriasis Study of WP1220 and CABE—The compounds WP1220 and CABE were tested in a pilot study of psoriasis patients who were not responsive to current standard therapies.

Turning to `O=C(/C=C/c1ccc(O)c(O)c1)OCc1ccccc1` [CABE, (E)-Benzyl 3-(3,4-dihydroxyphenyl)acrylate], the “patients responded with substantial improvement or complete resolution of psoratic lesions” value is “five out of seven”.
As for `C[C@H](NC(=O)/C(C#N)=C/C=C/c1cccc(Br)n1)c1ccccc1` [WP1220, (2E,4E)-5-(6-bromopyridin-2-yl)-2-cyano-N—((S)-1-phenylethyl)penta-2,4-dienamide], the “patients responded with substantial improvement or complete resolution of psoratic lesions” value is given as “seven out of seven”.
